We go through three molecules from patent US20050260582A1, “Cell proliferation inhibitors comprising ets transcription factor or gene encoding the same” (priority 2001, published 2005).

Assay [1] deals with human umbilical vein endothelial cells (HUVECs). In words: Migration of HUVECs toward serum-free culture supernatant. Type of assay: cell-based. Particulars: 8-μm filter, 24 hours; A549 supernatant accelerated migration; bFGF positive control. An excerpt: Successively, it was further examined whether MEF gene overexpression of A549 cells influences metastasis of vessel endothelial cells. […] Human umbilical vein endothelial cells (HUVECs) were inoculated in an upper chamber, and cells migrating in a medium of a lower chamber were observed through a 8-μm filter.
The results are shown in FIG. 17 by photographs in place of drawings. […] In FIG. 18, the ordinate represents a (%) migration activity relative to a non-treated case, and the abscissa represents a non-treated case, a case of bFGF, a case of A549 cell and a case of MEF gene overexpressing cell (clone 71) from the left side respectively.
[…] of a cell suspension containing HUVECs at a concentration of 2.5×10^5 cells/ml was added to an upper layer of a matrigel invasion chamber (BD Biocoat Matrigel) having 8-μm pores. Subsequently, 700 μl of a serum-free culture supernatant produced according to 1. of Example 10 was added to a lower layer. After 24 hours, HUVECs invaded into the lower layer of the membrane filter were stained with hematoxylin, and the number of cells was then counted under a microscope.

The test system of assay [2] is MEF expression. The experiment in a line: MEF expression by RT-PCR. It is filed as cell-based, human. An excerpt: Next, since methylcytosine is recognized with methylated DNA bound to protein MeCP2 interacting with HDAC [Ng et al, 1999], the present inventors examined the effect given by the combined use of 5-aza-2′-deoxycytidine (5-azacytidine) as a demethylation agent and tricostatin A as a histone deacylase inhibitor in MEF expression of A549 cell. The results are shown in photographs in place of drawings in FIG. 3. […] GAPDH is shown as a control. In FIG. 3, HEK293 cell, A549 cell and Caco-2 cell are shown from the left side in an upper panel, and A549 cell and Caco-2 cell from the left side in a lower panel. In FIG. 3, DMSO indicates dimethyl sulfoxide, 5-AC indicates 5-azacytidine and TSA indicates tricostatin A respectively. […] The low MEF expression in Hela cell is considered to be attributed to any other unknown mechanism. This is also backed up by the report that Hela cell lacking in known methylation-dependent inhibitor MeCP2 becomes a silence methylation gene using another route including MBD2 [Ng et al., 1999].
Isogene (Nippon Gene) was used in extraction of all RNAs from culture cells. For comparison of various gene expressions of culture cells, RT-PCR was conducted. RNA PCR kit (AMV) ver. 2.1 (TaKaRa) was used for RT-PCR. The methods by which the gene expression identified in the invention are outlined below.
A reverse transcription reaction (at 42° C. for 60 minutes, at 99° C. for 5 minutes, at 5° C. for 5 minutes) was performed using 1 μg of all RNAs extracted from A549 and other cells as templates and oligo dT primers. Thereafter, PCR (at 94° C. for 2 minutes—1 cycle; at 94° C. for 30 seconds, at 58° C. for 30 seconds, at 72° C. for 30 seconds—40 cycles) was performed using an upstream primer (5′-[…]-3,) and a downstream primer (5,-[…]-3′).

Assay [3] concerns MMP-9 promoter. In words: Luciferase assay using MMP-9 promoter. It is filed as cell-based, human. Particulars: 5-azacytidine (1 μM) and trichosamine A (1 μM). The protocol:
(§1) Accordingly, the present inventors further examined the function of MEF on transcription of MMP-9 and IL-8. For examining whether MEF directly suppresses transcription of MMP-9 and IL-8, the present inventors performed luciferase assay using MMP-9 and IL-8 promoters. […] In each case, the ordinate represents a relative luciferase activity, and the abscissa represents Basal, A549 cell, a case of adding 1.0 μM MEF, a case of adding 3.0 μM MEF, a case of adding 5.0 μM MEF and a case of adding MEF gene overexpressing cell (clone 71) from the left respectively. In A549 cell, a high luciferase activity of MMP-9 and IL-8 promoters was observed (FIG. 20). […] In each graph, the ordinate represents a relative luciferase activity, and the abscissa represents Basal, A549 cell, a case of adding Est-2 and a case of adding anti-Est-2 from the left respectively.
(§2) The finding of MMP-9 activation with ETS-2 is also backed up by the study on target deletion of Ets-2 using mice [Yamamoto, 1998]. Since MEF is, unlike PU-1, free from a repressor region [Kihara-Negishi, 2001] and interacts with HDAC or Sin3A having a deacetylase activity, the present inventors next assumed that MEF is a competitor with ETS-2 in ets binding sites of these promoters. […]

Assay [4] concerns IL-8 promoter. In words: Luciferase assay using IL-8 promoter. To be noted: 5-azacytidine (1 μM) and trichosamine A (1 μM). It is filed as cell-based, human. The method, then:
as §1, §2

Assay [5] has as its system A549 cell. The experiment in a line: Cell morphology and F-actin staining. Type of assay: cell-based, human. The protocol:
In FIG. 4, A549 cell, MEF gene overexpressing […] cell and A549 cell treated with BB94 (10 μM) are shown respectively from the left side.
Moreover, it has been reported that metastasis from epithelium to mesenchyme is induced by lack of E-cadherin or activation of MMPs [Llorens et al., 1998], expression of MMPs and E-cadherin was next examined. The right side in FIG. 5 is a photograph in place of a drawing, showing results of analyzing an MMP-9 protein content of A549 cell and MEF gene overexpressing cell in a serum-free culture supernatant (conditioned media) by western blotting using anti-MMP-9 antibody, and the left side in FIG. 5 is a photograph in place of a drawing, showing results of gelatin-zymography of MMP-9. […] In order to examine the decrease in MMP-9 activity in MEF gene overexpressing cell, A549 cell was treated with BB94 as an MMP inhibitor. […] Generally, such a morphological change thereof indicates reduction of an invasion activity. Accordingly, for examining an invasive function of A549 cell and MEF gene overexpressing cell, matrigel invasion assay was performed. In an upper chamber of FIG. 6, 2.5×10^5 A549 cells (left side), MEF gene overexpressing cells (center) and A549 cells (right side) treated with BB94 were inoculated respectively, and the numbers of cells on the lower side which were passed through a 8-μm filter were counted. […]

For assay [6], the system named is A549 cells. The experiment in a line: Matrigel invasion assay. It is filed as cell-based, human. To be noted: cells passed through 8-μm filter after 24 hours; BB94-treated A549 as comparison. An excerpt:
Moreover, it has been reported that metastasis from epithelium to mesenchyme is induced by lack of E-cadherin or activation of MMPs [Llorens et al., 1998], expression of MMPs and E-cadherin was next examined. The right side in FIG. 5 is a photograph in place of a drawing, showing results of analyzing an MMP-9 protein content of A549 cell and MEF gene overexpressing cell in a serum-free culture supernatant (conditioned media) by western blotting using anti-MMP-9 antibody, and the left side in FIG. 5 is a photograph in place of a drawing, showing results of gelatin-zymography of MMP-9. […] In an upper chamber of FIG. 6, 2.5×10^5 A549 cells (left side), MEF gene overexpressing cells (center) and A549 cells (right side) treated with BB94 were inoculated respectively, and the numbers of cells on the lower side which were passed through a 8-μm filter were counted. […]
200 μl of each cell suspension prepared to a concentration of 1.0×10^6 cells/ml was added to an upper layer of a matrigel invasion chamber (BD Biocoat Matrigel) having 8-μm pores, and 700 μl of a serum-free culture solution was added thereto. After 24 hours, the cells invaded in the lower layer of the membrane filter were stained with hematoxylin, and the number of the cells was then counted under a microscope.

Consider “bFGF: basic FGF, positive control for HUVEC migration”, for which the “migration of HUVECs” value in assay [1] is recorded as “increased migration of HUVECs”.

Take `CC(/C=C/C(=O)NO)=C\[C@@H](C)C(=O)c1ccc(N(C)C)cc1` [tricostatin A]: the MEF expression entry in assay [2] (A549 cell, combined use of 5-azacytidine (1 μM) and tricostatin A (300 μM)) is “clearly increased the MEF expression”; in assay [2] (A549 cell, single use of the reagent) it was “increased the MEF expression only slightly”; in assay [2] (Caco-2 cell, 5-azacytidine and tricostatin A), “same effect was observed”; in assay [2] (HEK293 cell, 5-azacytidine and tricostatin A), “not in HEK293 and Hela cells”; in assay [2] (Hela cell, 5-azacytidine and tricostatin A) it was “not in HEK293 and Hela cells”. Also, the MMP-9 promoter activity entry in assay [3] is “inhibited”. Also, in assay [4], the IL-8 promoter activity entry is recorded as “inhibited”.

With `CNC(=O)[C@H](Cc1ccccc1)NC(=O)[C@H](CC(C)C)[C@H](CSc1cccs1)C(=O)NO` [BB94], the F-actin localization entry in assay [5] (MEF gene overexpression or BB94 10 μM) is given as “localization of F-actin in the interface between cells”. The morphological change result in assay [5] (MEF gene overexpression, BB94 10 μM or 5-azacytidine 10 μm) is recorded as “induced typical morphological change”. Further, in assay [6], the invasion activity entry is “inhibitory effect”.
